Results published in patent US5039706A, “Antiinflammatory PLA2 inhibitors” (Du Pont Merck Pharmaceutical Company, priority 1989, dated 1991).
Counter-ions that a name gives are not always drawn.

Tested on: inflammation induced by tetradecanoyl phorbol acetate (TPA)
Assay: TPA inflammation inhibition test (mouse ear edema)
Format: in vivo, mice
Set-up: dose or concentration left out as unconfirmed
Conditions: topical, 4 h, TPA to right ear, edema measured four hours later, read-out: % Inhibition of Control Swelling
Description: One such model is the inflammation induced by tetradecanoyl phorbol acetate (TPA), modified from the method of Kuehl et al., Nature, 1977, 265, 170; and Van Arman, Clin. Pharmacol. Ther., 1974, 16, 900. The TPA model mimics many of the inflammatory changes which occur in human skin diseases such as psoriasis, since elevated levels of inflammatory arachidonic acid metabolites are found and an influx of polymorphonuclear leukocytes is observed. The test procedure used to evaluate the compounds of Formula (I) is as follows: the test compound […] is applied to both ears of mice in an appropriate vehicle, such as acetone, and then the inflammatory stimulus (TPA) is applied to the right ear. Four hours later, the edema is measured by removing standard size discs from the ears using a biopsy punch. A control group of animals receives TPA in vehicle applied to the right ear, and vehicle alone to the left ear. The weights of the ear discs are determined, and the suppression of swelling observed in animals treated with the test compound is determined.

| SMILES | inhibition in vivo [%] |
| --- | --- |
| CCCCCCCCCCCNCCC(N)c1ccc(F)cc1 (stereo not drawn) [Example 27, 4-Fluoro-α-[2-undecylamino)ethyl]benzenemethanamine Dihydrochloride] | 51 |
| NC(CCCSc1ccccc1)c1ccc(F)cc1 (stereo not drawn) [Example 38, 4-Fluoro-α-(3-phenylthiopropyl)benzenemethanamine Hydrochloride] | 30 |
| CC(NCCC(N)c1ccc(F)cc1)C12CC3CC(CC(C3)C1)C2 (stereo not drawn) [Example 39, 4-Fluoro-α-(2-[1-(3-adamantyl)ethylamino]ethyl)benzenemethanamine Dihydrochloride] | 50 |
| CCCCCCCCSCCCC(N)c1ccc(F)cc1 (stereo not drawn) [Example 5, 4-Fluoro-α-[3-(octylthio)propyl]benzenemethanamine Hydrochloride] | 46 |
| CC(NCCC(N)c1ccc(Cl)cc1)C12CC3CC(CC(C3)C1)C2 (stereo not drawn) [Example 36, 4-Chloro-α-(2-[1-(3-adamantyl)ethylamino]ethyl)benzenemethanamine Dihydrochloride] | 48 |
| CCCCCCNCCC(N)c1ccc(F)cc1 (stereo not drawn) [Example 28, 4-Fluoro-α-[2-(hexylamino)ethyl]benzenemethanamine Dihydrochloride] | 51 |
| CCCCCCCCNCCC(N)c1ccc(F)cc1 (stereo not drawn) [Example 21, 4-Fluoro-α-[2-(octylamino)ethyl]benzenemethanamine Dihydrochloride] | 68 |
| CC(C)(C)CC(C)(C)NCCC(N)c1ccc(F)cc1 (stereo not drawn) [Example 34, 4-Fluoro-α-[2-(1,1,3,3-tetramethylbutyl)aminoethyl]benzenemethanamineDihydrochloride] | 22 |
| CCCCCCC(C)OCCCC(N)c1ccc(F)cc1 (stereo not drawn) [Example 61, 4-Fluoro-α-[3-(2-octyloxy)propyl]benzenemethanamine] | 25 |
| CC1(C)C2CCC(CNCCC(N)c3ccc(F)cc3)C1C2 (single isomer, unassigned) [Example 11, 4-Fluoro-α-(2-[(1α,2α,5α-7,7-dimethylbicyclo[3.1.1]-heptanyl-2-methyl)amino]ethyl)benzenemethanamine Dihydrochloride] | 45 |
| NC(CCCSc1ccncc1)c1ccc(F)cc1 (stereo not drawn) [Example 10, 4-Fluoro-α-[3-(4-pyridinylthio)propyl]benzenemethanamine Dihydrochloride] | 24 |
| CC(C)c1ccc2c(c1)CCC1C(C)(CNCCCC(N)c3ccc(F)cc3)CCCC21C (stereo not drawn) [Example 8, 4-Fluoro-α-(4-[1,4a-dimethyl-7-(2-propyl)-1,2,3,4,4a,9,10,10a-octahydro-1-phenanthrenylmethylamino]propyl)-benzenemethanamine Dihydrochloride] | 50 |
| CC1(C)C2CCC(CNCCC(N)c3ccc(F)cc3)C1C2 (stereo not drawn) [Example 30, α-[2-(7,7-Dimethylbicyclo[3,1,1]heptyl-2-methylamino)ethyl]-4-fluoro-benzenemethanamine Dihydrochloride] | 34 |
| CC(C)c1ccc2c(c1)CCC1C(C)(CNCCC(N)c3ccccc3)CCCC21C (stereo not shown) [Example 56, Dihydrochloride] | 64 |
| CCCCCCCNCCC(N)c1ccc(F)cc1 (stereo not drawn) [Example 26, 4-Fluoro-α-[2-heptylamino)ethyl]benzenemethanamine Dihydrochloride] | 52 |
| CC(C)c1ccc2c(c1)CCC1C(C)(CNCCC(N)c3ccc(F)cc3)CCCC21C (stereo not drawn) [Example 1, α-(2-[1,4a-Dimethyl-7-(2-propyl)-1,2,3,4,4a,9,10,10a-octahydro-1-phenanthrenylmethylamino]ethyl)-4-fluorobenzenemethanamine Dihydrochloride] | 89 |
| COc1ccc(C(N)CCNCC2(C)CCCC3(C)c4ccc(C(C)C)cc4CCC23)cc1 (stereo not drawn) [Example 57, α-(2-[1,4a-Dimethyl-7-(2-propyl)-1,2,3,4,4a,9,10,10a-octahydro-1-phenanthrenylmethylamino]ethyl)-4-methoxybenzenemethanamine Dihydrochloride] | 60 |
| Cc1ccc(SCCCC(N)c2ccc(F)cc2)cc1 (stereo not drawn) [Example 7, 4-Fluoro-α-[3-(4-methylphenylthio)propyl]benzenemethanamine Hydrochloride] | 22 |
| NC(CCCSc1ccc(F)cc1)c1ccc(F)cc1 (stereo not drawn) [Example 44, 4-Fluoro-α-[3-(4-Fluorophenylthio)propyl]benzenemethanamine Hydrochloride] | 25 |
| CCCCCCCCCCCCCCCCCCNCCC(N)c1ccc(F)cc1 (stereo not drawn) [Example 42, 4-Fluoro-α-[2-(octadecylamino)ethyl]benzenemethanamine Dihydrochloride] | 22 |
| NC(CCNCCc1cccc2ccccc12)c1ccc(F)cc1 (stereo not drawn) [Example 40, 4-Fluoro-α-(2-[2-(1-naphthalenyl)ethylamino]ethyl)benzenemethanamine Dihydrochloride] | 29 |
| COc1ccc(CNCCC(N)c2ccc(F)cc2)c2ccccc12 (stereo not drawn) [Example 22, 4-Fluoro-α-(2-[(4-methoxynaphthalenyl)methylamino]ethyl)benzenemethanamine Dihydrochloride] | 26 |
